The molecules below were run against truncated Polθ protein (Polθ-Hel containing the helicase domain (67-894)) (Homo sapiens (Human), UniProt O75417) (assay: Polθ ATPase assay (Biological Assay 1, ADP-Glo luminescence)). Details: Polθ-Hel 0.5 nM, DNA substrate 500 nM, ATP 60 μM, 23° C.; read-out: Pole ATPase assay IC50.
Sequence of truncated Polθ protein (Polθ-Hel containing the helicase domain (67-894)) (O75417 67-894): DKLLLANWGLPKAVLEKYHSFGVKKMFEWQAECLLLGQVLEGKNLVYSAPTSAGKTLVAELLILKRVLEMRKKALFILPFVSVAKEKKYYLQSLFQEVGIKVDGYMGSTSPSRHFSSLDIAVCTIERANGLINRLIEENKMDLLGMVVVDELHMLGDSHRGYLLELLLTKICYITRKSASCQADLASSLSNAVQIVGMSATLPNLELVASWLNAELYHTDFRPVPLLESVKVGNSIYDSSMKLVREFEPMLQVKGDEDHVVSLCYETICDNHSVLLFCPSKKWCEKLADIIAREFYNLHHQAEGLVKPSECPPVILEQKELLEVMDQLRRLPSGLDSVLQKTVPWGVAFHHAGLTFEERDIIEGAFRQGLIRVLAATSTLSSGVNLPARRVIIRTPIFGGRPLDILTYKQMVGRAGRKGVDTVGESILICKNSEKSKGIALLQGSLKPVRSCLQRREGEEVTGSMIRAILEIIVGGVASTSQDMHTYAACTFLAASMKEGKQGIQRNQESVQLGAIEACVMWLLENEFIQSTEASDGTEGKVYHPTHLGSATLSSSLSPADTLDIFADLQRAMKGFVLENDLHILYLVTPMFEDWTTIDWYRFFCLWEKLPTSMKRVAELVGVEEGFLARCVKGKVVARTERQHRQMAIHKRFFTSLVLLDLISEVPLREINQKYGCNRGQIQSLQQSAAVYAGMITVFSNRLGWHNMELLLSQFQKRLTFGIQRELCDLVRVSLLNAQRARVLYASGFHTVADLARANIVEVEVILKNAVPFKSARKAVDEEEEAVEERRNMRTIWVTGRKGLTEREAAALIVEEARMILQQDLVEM
Format: biochemical
Procedure, shortened: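 Polθ-Hel (0.5 nM) with 500 nM ssDNA oligo in pH 8.8 Tris buffer (5 mM MgCl2, 1 mM DTT) was preincubated with compound 30 min at 23 °C. The reaction ran 60 min after 60 μM ATP was added (stated as the added solution, not final). ADP formed was detected by ADP-Glo luminescence to derive IC50.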
`COc1cnc(Cl)cc1-c1cc(C)ncc1C(=O)Nc1nc2ccc(N3CCC(O)CC3)nc2s1` [Example 74, 2′-chloro-N-[5-(4-hydroxypiperidin-1-yl)-[1,3]thiazolo[5,4-b]pyridin-2-yl]-5′-methoxy-6-methyl-[4,4′-bipyridine]-3-carboxamide] gave an IC50 of less than 100 nM. In the case of `COc1ncc2nc(NC(=O)c3cnc(C)cc3-c3cc(Cl)ncc3OC)sc2n1` [Example 75, 2′-chloro-5′-methoxy-N-{5-methoxy-[1,3]thiazolo[5,4-d]pyrimidin-2-yl}-6-methyl-[4,4′-bipyridine]-3-carboxamide], the IC50 is reported as less than 100 nM. `COc1cnc(Cl)cc1-c1cc(C)ncc1C(=O)Nc1nc2cnc(N3CCC4(COC4)C3)nc2s1` [Example 76, 2′-chloro-5′-methoxy-6-methyl-N-(5-{2-oxa-6-azaspiro[3.4]octan-6-yl}-[1,3]thiazolo[5,4-d]pyrimidin-2-yl)-[4,4′-bipyridine]-3-carboxamide] showed an IC50 of less than 100 nM. `COc1cnc(Cl)cc1-c1cc(C)ncc1C(=O)Nc1nc2cnc(NCC(C)(C)O)nc2s1` [Example 77, 2′-chloro-N-{5-[(2-hydroxy-2-methylpropyl)amino]-[1,3]thiazolo[5,4-d]pyrimidin-2-yl}-5′-methoxy-6-methyl-[4,4′-bipyridine]-3-carboxamide] was tested, and the IC50 was less than 100 nM. `COc1cnc(Cl)cc1-c1cc(C)ncc1C(=O)Nc1nc2cnc(NCC(C)C)nc2s1` [Example 78, 2′-chloro-5′-methoxy-6-methyl-N-{5-[(2-methylpropyl)amino]-[1,3]thiazolo[5,4-d]pyrimidin-2-yl}-[4,4′-bipyridine]-3-carboxamide] showed an IC50 of less than 100 nM. For `COc1cnc(Cl)cc1-c1cc(C)ncc1C(=O)Nc1nc2cnc(NC3CCC3)nc2s1` [Example 79, 2′-chloro-N-[5-(cyclobutylamino)-[1,3]thiazolo[5,4-d]pyrimidin-2-yl]-5′-methoxy-6-methyl-[4,4′-bipyridine]-3-carboxamide], the IC50 was less than 100 nM. Molecule `COc1cnc(Cl)cc1-c1cc(C)ncc1C(=O)Nc1nc2cnc(N3CCC(OC)CC3)nc2s1` [Example 80, 2′-chloro-5′-methoxy-N-[5-(4-methoxypiperidin-1-yl)-[1,3]thiazolo[5,4-d]pyrimidin-2-yl]-6-methyl-[4,4′-bipyridine]-3-carboxamide] has an IC50 of less than 100 nM. `COc1cnc(Cl)cc1-c1cc(C)ncc1C(=O)Nc1nc2cnc(N3CC4(CC(O)C4)C3)nc2s1` [Example 81, 2′-chloro-N-(5-{6-hydroxy-2-azaspiro[3.3]heptan-2-yl}-[1,3]thiazolo[5,4-d]pyrimidin-2-yl)-5′-methoxy-6-methyl-[4,4′-bipyridine]-3-carboxamide] gave an IC50 of less than 100 nM. Molecule `COc1cnc(Cl)cc1-c1cc(C)ncc1C(=O)Nc1nc2cnc(N3CC4(CCOC4)C3)nc2s1` [Example 82, 2′-chloro-5′-methoxy-6-methyl-N-(5-{6-oxa-2-azaspiro[3.4]octan-2-yl}-[1,3]thiazolo[5,4-d]pyrimidin-2-yl)-[4,4′-bipyridine]-3-carboxamide] has an IC50 of less than 100 nM. With `COc1cnc(Cl)cc1-c1cc(C)ncc1C(=O)Nc1nc2ccc(S(C)(=N)=O)cc2s1` (stereo not drawn) [Example 83, 2′-chloro-N-{6-[imino(methyl)oxo-λ^6-sulfanyl]-1,3-benzothiazol-2-yl}-5′-methoxy-6-methyl-[4,4′-bipyridine]-3-carboxamide] the IC50 was less than 100 nM. `COc1cnc(Cl)cc1-c1cc(C)ncc1C(=O)Nc1nc2ccc(N3CCCS3(=O)=O)cc2s1` [Example 84] was tested, and the IC50 was less than 100 nM. With `COc1cnc(Cl)cc1-c1cc(C)ncc1C(=O)Nc1nc2ccc(N3CC[C@@H](O)CC3=O)cc2s1` [Example 85, 2′-chloro-N-{6-[(4R)-4-hydroxy-2-oxopiperidin-1-yl]-1,3-benzothiazol-2-yl}-5′-methoxy-6-methyl-[4,4′-bipyridine]-3-carboxamide] the IC50 was less than 100 nM. In the case of `COc1cnc(Cl)cc1-c1cc(C)ncc1C(=O)Nc1nc2ccc(N3CCN(C)CC3=O)cc2s1` [Example 86, 2′-chloro-5′-methoxy-6-methyl-N-[6-(4-methyl-2-oxopiperazin-1-yl)-1,3-benzothiazol-2-yl]-[4,4′-bipyridine]-3-carboxamide], the IC50 is reported as less than 100 nM. `COc1cnc(Cl)cc1-c1cc(C)ncc1C(=O)Nc1nc2cnc(C3=CCOCC3)nc2s1` [Example 87, 2′-chloro-N-[5-(3,6-dihydro-2H-pyran-4-yl)-[1,3]thiazolo[5,4-d]pyrimidin-2-yl]-5′-methoxy-6-methyl-[4,4′-bipyridine]-3-carboxamide] gave an IC50 of less than 100 nM. Work on `COc1cnc(C(F)(F)F)cc1-c1cc(C)ncc1C(=O)Nc1nc2cnc(N3CCC(O)CC3)nc2s1` [Example 88, N-[5-(4-hydroxypiperidin-1-yl)-[1,3]thiazolo[5,4-d]pyrimidin-2-yl]-5′-methoxy-6-methyl-2′-(trifluoromethyl)-[4,4′-bipyridine]-3-carboxamide] yielded an IC50 of less than 100 nM. Work on `COc1cnc(C(F)F)cc1-c1cc(C)ncc1C(=O)Nc1nc2cnc(N3CCOCC3)nc2s1` [Example 89] yielded an IC50 of less than 100 nM. Molecule `COc1cnc(Cl)cc1-c1cc(C)ncc1C(=O)Nc1nc2cnc(C(F)(F)F)nc2s1` [Example 90, 2′-chloro-5′-methoxy-6-methyl-N-[5-(trifluoromethyl)-[1,3]thiazolo[5,4-d]pyrimidin-2-yl]-[4,4′-bipyridine]-3-carboxamide] has an IC50 of less than 100 nM. `COc1cnc(Cl)cc1-c1cc(C)ncc1C(=O)Nc1nc2cnc(C)nc2s1` [Example 91, 2′-chloro-5′-methoxy-6-methyl-N-{5-methyl-[1,3]thiazolo[5,4-d]pyrimidin-2-yl}-[4,4′-bipyridine]-3-carboxamide] was tested, and the IC50 was less than 100 nM. Work on `COc1cnc(C)cc1-c1cc(C)ncc1C(=O)Nc1nc2cnc(N3CCOCC3)nc2s1` [Example 92, 5′-methoxy-2′,6-dimethyl-N-[5-(morpholin-4-yl)-[1,3]thiazolo[5,4-d]pyrimidin-2-yl]-[4,4′-bipyridine]-3-carboxamide] yielded an IC50 of less than 100 nM. For `COc1cnc(F)cc1-c1cc(C)ncc1C(=O)Nc1nc2cnc(N3CCOCC3)nc2s1` [Example 93, 2′-fluoro-5′-methoxy-6-methyl-N-[5-(morpholin-4-yl)-[1,3]thiazolo[5,4-d]pyrimidin-2-yl]-[4,4′-bipyridine]-3-carboxamide], the IC50 was less than 100 nM. Molecule `COc1cnc(Cl)cc1-c1cc(C)ncc1C(=O)Nc1nc2cnc(N3CCCCC3=O)nc2s1` [Example 94, 2′-chloro-5′-methoxy-6-methyl-N-[5-(2-oxopiperidin-1-yl)-[1,3]thiazolo[5,4-d]pyrimidin-2-yl]-[4,4′-bipyridine]-3-carboxamide] has an IC50 of less than 100 nM.

Same assay, conditions: Table B; compounds of Experimental Part B, in vitro; read-out: Polθ ATPase assay IC50
With `COc1cnc(Cl)cc1-c1cc(C)ncc1C(=O)Nc1nc2cnc(NC[C@@H](C)O)nc2s1` [Example 95, 2′-chloro-N-(5-{[(2R)-2-hydroxypropyl]amino}-[1,3]thiazolo[5,4-d]pyrimidin-2-yl)-5′-methoxy-6-methyl-[4,4′-bipyridine]-3-carboxamide] the IC50 was less than 100 nM. In the case of `COc1cnc(Cl)cc1-c1cc(C)ncc1C(=O)Nc1nc2cnc(NC[C@H](C)O)nc2s1` [Example 96, 2′-chloro-N-(5-{[(2S)-2-hydroxypropyl]amino}-[1,3]thiazolo[5,4-d]pyrimidin-2-yl)-5′-methoxy-6-methyl-[4,4′-bipyridine]-3-carboxamide], the IC50 is reported as less than 100 nM. In the case of `COc1cnc(Cl)cc1-c1cc(C)ncc1C(=O)Nc1nc2cnc(N3CC(C)(OC)C3)nc2s1` [Example 97, 2′-chloro-5′-methoxy-N-[5-(3-methoxy-3-methylazetidin-1-yl)-[1,3]thiazolo[5,4-d]pyrimidin-2-yl]-6-methyl-[4,4′-bipyridine]-3-carboxamide], the IC50 is reported as less than 100 nM.
